In brackets after ≈: the same amount, converted by molar mass. Read-outs that look alike come from different tables or passages of the source.
Legend:
[1] = system: glucosinolate production; experiment: Induction of glucosinolate production in Tropaeolum majus; assay type: in vivo
Description: Seeds of Tropaeolum majus L. cv Empress of India (Dansk Havefroforsyning, Kolding, DK) are allowed to imbibe and germinate in complete darkness for one week at 25° C. In vivo biosynthesis experiments are performed wherein 1 μCi of the tracer ^14 C-labelled phenylalanine is administered to excised dark-grown seedlings for 24 hours followed by boiling of the plant material in 90% methanol and analysis of the extracts by HPLC as described by Lykkesfeldt and Moller, 1993. Prior to administration of the tracer to the excised seedling or leaf, the intact plant is subjected to a potential inducer for 24 hours.

[2] = system: biosynthesis of glucosinolates; experiment: In vivo effect of cytochrome P450 inhibitors on glucosinolate in etiolated tropaeolum seedlings; details: 1 mM inhibitor; for effect on glucosinolate: radioactively labelled phenylalanine, etiolated tropaeolum seedlings
[3] = system: Western Corn Root Worm (WCRW); experiment: Larval mortality of Western Corn Root Worm on diet; assay type: in vivo, Diabrotica virgifera virgifera
Description: Insects or insect larvae are fed on a diet containing added cyanogenic glycoside, a diet containing added cyanogenic glycoside, and callus, or a diet supplemented with the supernatant of callus ground-up in the presence of the cyanogenic glycoside. Mortality is compared to the mortality of insects or insect larvae fed on the diet only.
WCRW larvae are fed on a diet with added amygdalin, a diet with added amygdalin and Black Mexican Sweet (BMS) callus or on a diet supplemented with the supernatant of BMS-callus ground-up in the presence of amygdalin. Larval mortality is compared to the mortality of larvae fed on the diet only.
The activity of dhurrin on larval mortality of WCRW was determined as described for amygdalin in example 12.

[4] = biological target: T1, P-450TYR expressed in E. coli (Sorghum bicolor, UniProt Q43135); experiment: Substrate binding spectra of P-450TYR expressed in E. coli
T1 construct: in which the 35 N-terminal amino acids are replaced by the nine N-terminal amino acids from bovine 17α hydroxylase; nine N-terminal amino acids from bovine 17alpha-hydroxylase (replace the 35 N-terminal residues) (N); made in house; host or cells: E. coli JM109, vector pSP19g10L
Description: (§1) Cytochrome P-450TYR in the oxidized state has a strong absorption peak at 420 nm, representing the low spin state of the iron of the heme group. The binding of a ligand to the heme group shifts the absorption maximum by changing the spin state of the iron. Binding of tyrosine at the catalytic site of cytochrome P-450TYR induces a change of the spin state of the oxidized iron from low to high spin, and thereby changes the absorption maximum from 420 nm to 390 nm producing a type I spectrum (Jefcoate, Methods in Enzymology 52:258-279, 1978). The following experimental procedure is used to obtain the substrate binding spectrum: two identical cuvettes containing a buffered solution of the isolated cytochrome P-450 are prepared. The substrate of the enzyme is added to the sample cuvette whereas the same volume of buffer is added to the other cuvette. The difference spectrum is then recorded in an SLM-Aminco DW2c spectrophotometer. The absorption difference, A390-420, is proportional to the concentration of cytochrome P-450TYR with a bound substrate at its active site. If a saturating concentration of substrate is added to the sample cuvette, the absorption difference is proportional to the concentration of the substrate specific cytochrome P-450 in the cuvettes. The saturating concentration of the substrate is determined by titrating the cytochrome P-450 sample with increasing amounts of substrate and monitoring A390-420.
A modified cytocrome P-450TYR, in which the 35 N-terminal amino acids are replaced by the nine N-terminal amino acids from bovine 17α hydroxylase is introduced into the expression vector pSP19g10L which can be obtained from Dr. Henry Barnes (La Jolla, Calif.). This plasmid contains the lac Z promoter fused with the known short leader sequence (g10L) of gene 10 from bacteriophage T7 (Olin et al, 1988). A construct containing the N-terminal amino acids from bovine 17α hydroxylase and a truncated form of the P-450TYR gene is designed using PCR mutagenesis: Oligonucleotide TYROL 1d (5'-CGGGATCCATATGGCTCTGTTATTAGCAGTTTTTCTGTCGTACCTGGCCCG-3'; SEQ ID NO 23) containing a 5' mutant cDNA sequence as well as a BamHI and NdeI restriction site is used together with oligonucleotide TYROL 3 comprising the sequence surrounding the unique BamHI restriction site downstream of the ATG start codon of the cDNA coding for P-450TYR to amplify a modified N-terminal sequence of P-450TYR. The amplification product is cut with NdeI and BamHI restriction enzymes. To introduce a HindIII site immediately downstream of the stop codon of the P-450TYR gene, oligonucleotides TYROL 2 and TYROL 4 are used in a polymerase chain reaction to obtain a C-terminal fragment of the P-450TYR gene comprising a HindIII restriction site immediately downstream of the stop codon. The amplification product is cut with PstI and HindIII restriction enzymes. The complete expression plasmid is constructed by simultaneous ligation of the N-terminal NdeI/BamHI fragment, the BamHI/PstI fragment of the P-450TYR gene and the C-terminal PstI/HindIII fragment into NdeI/HindIII cleaved pSP19g10L vector DNA. The expression vector obtained is transformed into E. coli strain JM109. Transformed E. coli produce 300 nmol to 500 nmol cytochrome P-450TYR per liter cell culture upon growth at 28° C. in the presence of 1 mM isopropyl-β-D-thiogalactopyranoside and at 125 rpm. Expression levels as high as 900 nmol per liter, equivalent to 55 mg P-450TYR per liter, have been obtained. […]

[5] = biological target: T2, cytochrome P-450TYR (Sorghum bicolor, UniProt Q43135); experiment: Substrate binding spectra of isolated sorghum cytochrome P-450TYR (difference spectrum A390-420)
T2 construct: from tissue; host or cells: microsomes of etiolated Sorghum bicolor seedlings, solubilised and purified by dye columns
T2 sequence (Q43135 1-558): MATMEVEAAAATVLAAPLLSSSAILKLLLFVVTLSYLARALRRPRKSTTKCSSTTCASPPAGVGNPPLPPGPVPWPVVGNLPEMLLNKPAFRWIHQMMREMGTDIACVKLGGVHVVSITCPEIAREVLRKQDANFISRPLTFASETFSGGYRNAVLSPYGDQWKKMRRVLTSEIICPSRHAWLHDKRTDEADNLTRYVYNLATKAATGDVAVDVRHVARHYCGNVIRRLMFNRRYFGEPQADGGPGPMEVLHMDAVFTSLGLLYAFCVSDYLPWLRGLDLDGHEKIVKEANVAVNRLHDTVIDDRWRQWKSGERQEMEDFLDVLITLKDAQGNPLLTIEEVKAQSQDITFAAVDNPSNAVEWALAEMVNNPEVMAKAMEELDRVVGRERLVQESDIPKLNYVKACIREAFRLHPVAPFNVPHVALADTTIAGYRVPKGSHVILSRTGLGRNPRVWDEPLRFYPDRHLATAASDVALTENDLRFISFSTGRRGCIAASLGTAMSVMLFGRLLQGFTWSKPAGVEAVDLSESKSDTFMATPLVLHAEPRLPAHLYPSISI
Description: Cytochrome P-450 substrate binding spectra are recorded with stepwise increased substrate concentration until saturating conditions are reached.
as §1, with “Binding of tyrosine at the catalytic site of cytochrome P-450TYR induces a change of the spin state of the oxidized iron from low to high spin, and thereby changes the absorption maximum from 420 nm to 390 nm producing a type I spectrum (Jefcoate, Methods in Enzymology 52:258-279, 1978).” left out
If a cytochrome P-450 sample can be saturated with two different substrates, there may be two different cytochrome P-450 enzymes in the sample, or there may be one cytochrome P-450 enzyme able to bind to both substrates. To discriminate between these possibilities, saturating amounts of the two substrates are added sequentially and the A390-420absorption change is monitored. If, independent of the order of addition, the addition of the second sample gives rise to an increased A390-420value compared to the value after the addition of the first substrate, the two substrates are bound by different enzymes. If A390-420 remains unchanged upon addition of the second substrate, independent of the order of addition, both substrates bind to the same active site, i.e. to the same cytochrome P-450 enzyme.

[6] = system: N[C@@H](Cc1ccc(O)cc1)C(=O)O; experiment: Reconstitution of cytochrome P-450TYR activity in DLPC micelles; assay type: biochemical, Sorghum bicolor; details: pH 7.9, 30.0 °C
Description: Reconstitution of the enzyme activity of a microsomal P-450 enzyme is accomplished by insertion of the cytochrome P-450 enzyme and the corresponding NADPH-cytochrome P-450 oxidoreductase into appropriate lipid micelles made from different commercially available lipids. Isolation of NADPH-cytochrome P-450 oxidoreductase is done according to Halkier and Moller, Plant Physiol. 96:10-17, 1990. A mixture of lipids can be used but with cytochrome P-450TYR di-lauroyl-phosphatidyl choline (DLPC) provides the best enzymatic activity. One rate limiting factor of this rate limiting reaction is the number of correctly formed complexes of cytochrome P-450TYR and NADPH-cytochrome P-450 oxidoreductase. Excess amounts of the oxidoreductase and concentrated enzyme solutions ensure a sufficient number of active complexes.
A reconstituted enzyme is obtained using the following components:
Cytochrome P-450TYR : 100 μg/ml in 50 mM potassium phosphate buffer pH 7,9
Oxidoreductase, purified from Sorghum bicolor: 100 μg/ml in 50 mM potassium phosphate buffer pH 7,9
Lipid: 10 mg/ml di-lauroyl-phosphatidyl choline, sonicated in 50 mM potassium phosphate buffer pH 7,9
^14 C-tyrosine: commercially available from Amersham; [U-^14 C]-L-tyrosine 0.5 μCi
10 μl of the lipid suspension is mixed in a glass vial with 50 μl of the cytochrome P-450TYR (0-1.5 pmol) solution. 50 μl of the oxidoreductase (0-0.15 U) solution is added and then 10 μl tyrosine solution and 10 μl NADPH solution are added and the mixture is sonicated in a Branson 5200 sonication bath for one minute. The reaction mixture is subsequently incubated for 1 hour at 30° C. At the end of the incubation period the reaction is stopped by transferring the glass vials onto ice. Radioactively labelled intermediates formed are extracted into 50 μl ehtyl acetate, applied to a silica coated TLC plate and developed using an ethyl acetate/toluene (1:5 v/v) mixture as mobile phase. The resultant product, p-hydroxyphenylacetaldehyde oxime is visualized by autoradiography of the TLC plate. Alternatively, the intermediates are analyzed by reverse-phase HPLC coupled to a Berthold radioactiviy monitor. The HPLC separation was carried out using a nucleosil 100-10C18 column isocratically eluted with 1,5% 2-propanol in 25 mM Hepes pH 7,9 (Halkier et al, J. Biol. Chem. 264:19487-19494, 1989). Control samples may be made by omitting either cytochrome P-450 oxidoreductase or NADPH.

T1 sequence (Q43135 other isoform, or with tags, fused parts or gaps): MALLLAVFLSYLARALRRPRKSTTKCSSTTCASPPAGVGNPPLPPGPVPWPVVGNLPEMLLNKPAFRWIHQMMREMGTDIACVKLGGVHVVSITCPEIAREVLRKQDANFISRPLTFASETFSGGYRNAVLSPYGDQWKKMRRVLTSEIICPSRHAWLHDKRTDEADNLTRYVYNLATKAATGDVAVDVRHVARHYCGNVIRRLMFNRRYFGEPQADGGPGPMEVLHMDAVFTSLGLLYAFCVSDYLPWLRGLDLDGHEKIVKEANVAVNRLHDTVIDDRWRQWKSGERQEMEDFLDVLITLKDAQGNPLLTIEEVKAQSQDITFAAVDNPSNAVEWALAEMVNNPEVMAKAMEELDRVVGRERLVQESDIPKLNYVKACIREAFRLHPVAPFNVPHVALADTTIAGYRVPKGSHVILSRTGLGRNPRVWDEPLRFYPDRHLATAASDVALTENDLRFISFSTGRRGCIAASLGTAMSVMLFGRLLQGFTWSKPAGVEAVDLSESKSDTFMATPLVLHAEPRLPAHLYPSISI

For `CC/C=C\C[C@H]1C(=O)CC[C@@H]1CC(=O)O` [jasmonic acid], the “induction of glucosinolate production” value ([1]; spraying with 100 μM, incubation 24 hours, etiolated seedlings and green leaves) was “fivefold induction”.

enilketoconazol was tested, and the “effect on uptake of phenylalanine” value ([2]; measured by ethanol extraction of the plant material) was “without causing a reduction in the uptake of phenylalanine” and the effect on glucosinolate [2] was “reduction of glucosinolate”.

`N#C[C@H](O[C@@H]1O[C@H](CO[C@@H]2O[C@H](CO)[C@@H](O)[C@H](O)[C@H]2O)[C@@H](O)[C@H](O)[C@H]1O)c1ccccc1` [amygdalin] was tested, and the lethality ([3]; WCRW larvae, 2 mg/ml, in the absence of BMS-callus) was “lethal”, the lethality ([3]; WCRW larvae, concentrations of less than 1 mg/ml, BMS-callus absent) was “significantly less lethality” and the LC50 ([3]; WCRW larvae, in the presence of BMS-callus, read-out: LC50) was about 1000 µg/mL.

For `ON=CCc1ccc(O)cc1` [p-hydroxyphenylacetaldehyde oxime], the “type of substrate binding spectrum” value [4] was “type Ispectrum”.

For `CCO` [ethanol], the “increase in glucosinolate production as compared to control experiments with water” value ([1]; 10 mM phenylalanine or 2% ethanol administered to the vermiculate, 24 hours, etiolated seedlings) was “threefold increase”.

For `Clc1ccc(N2N=NC3C4CC(C5N=NC45)C32)cc1` (centres unmarked) [tetcyclacis], the effect on glucosinolate [2] was “reduction of glucosinolate”.

For `O=C(O)[C@H](Cc1ccc(O)cc1)NO` [N-hydroxytyrosine], the “initial A390-420” value ([5]; 50 μl 20 mM N-hydroxytyrosine) was 0,0689, the “resulting A390-420” value ([5]; 50 μl 20 mM N-hydroxytyrosine, dilution factor 550/500) was 0,0758 and the “initial A390-420” value ([5]; 120 μl 5 mM N-hydroxytyrosine) was 0,0919. The “resulting A390-420” value ([5]; 120 μl 5 mM N-hydroxytyrosine, dilution factor 620/500) was 0,1140, the “initial A390-420” value ([5]; 140 μl 5 mM N-hydroxytyrosine) was 0,0911 and the “resulting A390-420” value ([5]; 140 μl 5 mM N-hydroxytyrosine, dilution factor 640/500) was 0,1166. The “type of substrate binding spectrum” value ([5]; isolated sorghum P-450TYR) was “type I binding spectrum” and the “molar extinction coefficient E420-390” value [4] was 64.6 cm⁻¹ mM⁻¹.

In the case of `N#C[C@@H](O[C@@H]1O[C@H](CO)[C@@H](O)[C@H](O)[C@H]1O)c1ccc(O)cc1` [dhurrin], the LC50 [3] is reported as 368 µg/mL (≈ 1180 µM), the “95% confidence limits of LC50” value ([3]; WCRW larvae) is reported as 0.28 to 0.48 µg/mL and the “slope of the regression line” value ([3]; WCRW larvae) is reported as 2.5.

cytochrome P-450TYR (Sorghum bicolor) was tested, and the Km ([6]; other: in the absence of added salt) was 210 µM and the Km ([6]; other: in the presence of 15 mM NaCl) was 140 µM.

In the case of `N#CCc1ccc(O)cc1` [p-hydroxyphenylacetonitrile], the “type of substrate binding spectrum” value [4] is reported as “type Ispectrum”.

Source: US5882851A, “Cytochrome P-450 monooxygenases” (Novartis Finance Corporation, priority 1993, dated 1999)
